Measurements from ChEMBL document CHEMBL5543173, “Discovery of a New Anti-Inflammatory Agent from Anemoside B4 Derivatives and Its Therapeutic Effect on Colitis by Targeting Pyruvate Carboxylase” (J Med Chem, 2024).
One block for each molecule: values may come before it. Active and inactive are the calls of the source. No cut-off for these calls is given here.

Tests used:
[1] = Cmax in ICR mouse at 15 mg/kg, IG measured for 12 hrs by LC-MS/MS analysis; assay type: ADME, organism-based; conditions: in vivo, po
[2] = Tmax in colon of ICR mouse at 15 mg/kg, IG measured for 12 hrs by LC-MS/MS analysis; assay type: ADME, organism-based; conditions: po
[3] = MRT (0 to t) in ICR mouse at 15 mg/kg, IG measured for 12 hrs by LC-MS/MS analysis; assay type: ADME, organism-based; conditions: in vivo, po
[4] = MRT (0 to t) in colon of ICR mouse at 15 mg/kg, IG measured for 12 hrs by LC-MS/MS analysis; assay type: ADME, organism-based; conditions: po
[5] = AUC (0 to t) in ICR mouse at 15 mg/kg, IG measured for 12 hrs by LC-MS/MS analysis; assay type: ADME, organism-based; conditions: in vivo, po
[6] = test system: THP-1; experiment: cells; conditions: Homo sapiens, THP-1, 24 h
[7] = Half life in colon of ICR mouse at 15 mg/kg, IG measured for 12 hrs by LC-MS/MS analysis; assay type: ADME, organism-based; conditions: po
[8] = Tmax in ICR mouse at 15 mg/kg, IG measured for 12 hrs by LC-MS/MS analysis; assay type: ADME, organism-based; conditions: in vivo, po
[9] = AUC (0 to t) in colon of ICR mouse at 15 mg/kg, IG measured for 12 hrs by LC-MS/MS analysis; assay type: ADME, organism-based; conditions: po
[10] = Cmax in colon of ICR mouse at 15 mg/kg, IG measured for 12 hrs by LC-MS/MS analysis; assay type: ADME, organism-based; conditions: po
[11] = Half life in ICR mouse at 15 mg/kg, IG measured for 12 hrs by LC-MS/MS analysis; assay type: ADME, organism-based; conditions: in vivo, po, 15 mg/kg, 12 h
[12] = biological target: T1, Pyruvate carboxylase, mitochondrial (Homo sapiens, UniProt P11498); experiment: Inhibition of pyruvate carboxylase (unknown origin) by NADH-malate dehydrogenase based spectrophotometry
T1 sequence (P11498 whole entry): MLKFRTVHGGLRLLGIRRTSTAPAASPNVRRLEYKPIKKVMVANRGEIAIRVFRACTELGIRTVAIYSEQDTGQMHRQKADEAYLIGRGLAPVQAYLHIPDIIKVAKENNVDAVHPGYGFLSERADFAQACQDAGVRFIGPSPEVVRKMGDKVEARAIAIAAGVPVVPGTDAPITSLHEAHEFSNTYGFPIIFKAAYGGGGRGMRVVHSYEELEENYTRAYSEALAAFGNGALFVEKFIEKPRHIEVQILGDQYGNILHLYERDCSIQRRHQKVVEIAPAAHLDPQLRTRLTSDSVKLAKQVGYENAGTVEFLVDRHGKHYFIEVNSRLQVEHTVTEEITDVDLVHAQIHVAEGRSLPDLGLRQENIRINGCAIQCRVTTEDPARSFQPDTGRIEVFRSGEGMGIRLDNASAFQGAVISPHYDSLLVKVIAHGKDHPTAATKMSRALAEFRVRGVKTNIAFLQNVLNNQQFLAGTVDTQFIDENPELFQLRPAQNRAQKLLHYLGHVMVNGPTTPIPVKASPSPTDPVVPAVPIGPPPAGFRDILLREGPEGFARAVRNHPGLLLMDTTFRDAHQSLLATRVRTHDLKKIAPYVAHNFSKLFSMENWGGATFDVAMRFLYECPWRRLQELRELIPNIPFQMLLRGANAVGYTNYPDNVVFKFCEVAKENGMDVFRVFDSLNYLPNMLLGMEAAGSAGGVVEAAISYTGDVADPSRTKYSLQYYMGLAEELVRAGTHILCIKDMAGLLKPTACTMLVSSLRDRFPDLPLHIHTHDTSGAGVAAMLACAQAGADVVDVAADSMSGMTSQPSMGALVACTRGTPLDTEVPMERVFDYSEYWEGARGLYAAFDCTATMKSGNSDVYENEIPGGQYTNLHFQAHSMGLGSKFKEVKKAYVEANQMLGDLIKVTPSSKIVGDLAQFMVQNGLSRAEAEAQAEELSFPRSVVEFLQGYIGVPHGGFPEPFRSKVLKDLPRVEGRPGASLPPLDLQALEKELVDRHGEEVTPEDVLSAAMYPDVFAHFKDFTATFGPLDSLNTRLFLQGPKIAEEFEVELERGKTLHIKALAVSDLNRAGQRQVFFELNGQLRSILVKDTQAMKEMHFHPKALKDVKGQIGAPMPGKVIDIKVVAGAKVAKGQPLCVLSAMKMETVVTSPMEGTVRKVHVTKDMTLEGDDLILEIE

[13] = test system: THP-1; experiment: Anti-inflammatory activity in LPS-treated human THP-1 cells assessed as decrease in phosphorylated I-kappaB-alpha level at 10 uM pretreated for 1 hr followed by LPS treatment for 6 hrs by Western blot analysis; assay type: functional, cell-based; conditions: time 7.0 hrs
[14] = test system: Mus musculus; experiment: Anti-colitis activity in DSS-induced colitis mouse model at 20 to 40 mg/kg; assay type: functional, organism-based; conditions: dose 20-40 mg/kg
[15] = test system: Mus musculus; experiment: Anti-colitis activity in ICR mouse model of DSS-induced colitis assessed as decrease in DAI score at 400 mg/kg, IG treated for 9 days consecutively; assay type: functional, organism-based; conditions: time 9.0 day
[16] = test system: Mus musculus; experiment: Anti-colitis activity in ICR mouse model assessed as reversal of DSS-induced colon shortening administered intragastrically for 9 days consecutively; assay type: functional, organism-based; conditions: route ig, time 9.0 day
[17] = test system: Mus musculus; experiment: Anti-colitis activity in ICR mouse model assessed as reversal of DSS-induced spleen weight at 400 mg/kg, IG treated for 9 days consecutively; assay type: functional, organism-based; conditions: time 9.0 day
[18] = test system: Mus musculus; experiment: Anti-colitis activity in ICR mouse model assessed as reversal of DSS-induced splenomegaly at 400 mg/kg, IG treated for 9 days consecutively; assay type: functional, organism-based; conditions: time 9.0 day
[19] = test system: Mus musculus; experiment: Anti-colitis activity in ICR mouse model assessed as decrease in DSS-induced body weight loss at 400 mg/kg, IG treated for 9 days consecutively; assay type: functional, organism-based; conditions: time 9.0 day

SMILES: C=C(C)[C@@H]1CC[C@]2(C(=O)O[C@@H]3O[C@H](CO[C@@H]4O[C@H](CO)[C@@H](O[C@@H]5O[C@@H](C)[C@H](O)[C@@H](O)[C@H]5O)[C@H](O)[C@H]4O)[C@@H](O)[C@H](O)[C@H]3O)CC[C@]3(C)[C@H](CC[C@@H]4[C@@]5(C)CC[C@H](O[C@@H]6OC[C@H](O)[C@H](O)[C@H]6O[C@@H]6O[C@@H](C)[C@H](O)[C@@H](O)[C@H]6O)[C@@](C)(CO)[C@@H]5CC[C@]43C)[C@@H]12
Cmax [1]: 0.58 ng/mL | Tmax [2]: 1.92 h | MRT last at 12 h [3]: 5.13 h | MRT last at 12 h [4]: 4.38 h | AUCt [5]: 2.46 ng·h/mL | IC50 [6]: ≥ 80 µM | half-life [7]: 4.65 h | Tmax [8]: 0.46 h | AUC(0-t) at 12 h [9]: 30.2 ng·h/mL | Cmax [10]: 7.12 ng/mL | t1/2 [11]: 4.74 h

SMILES: C=C(C)[C@@H]1CC[C@]2(C(=O)O)CC[C@]3(C)[C@H](CC[C@@H]4[C@@]5(C)CC[C@H](O[C@@H]6OC[C@H](O)[C@H](O)[C@H]6O[C@@H]6O[C@@H](C)[C@H](O)[C@@H](O)[C@H]6O)[C@@](C)(CO)[C@@H]5CC[C@]43C)[C@@H]12
IC50 [6]: ≥ 80 µM | Activity [14]: inactive | IC50 [12]: > 10 µM

SMILES: Nc1ccc(O)c(C(=O)O)c1
Activity [15]: Active | Activity [16]: Dose-Dependent Effect | Activity [17]: Active | Activity [18]: Active | Activity [19]: Active

SMILES: C=C(C)[C@@H]1CC[C@]2(C(N)=O)CC[C@]3(C)[C@H](CC[C@@H]4[C@@]5(C)CC[C@H](O[C@@H]6OC[C@H](O)[C@H](O)[C@H]6O[C@@H]6O[C@@H](C)[C@H](O)[C@@H](O)[C@H]6O)[C@@](C)(CO)[C@@H]5CC[C@]43C)[C@@H]12
IC50 [6]: ≥ 80 µM | IC50 [12]: > 10 µM

Second part, led by results:

IC50 [6]: ≥ 80 µM | IC50 [12]: > 1 µM
SMILES: C=C(C)[C@@H]1CC[C@]2(C(=O)NCCCN3CCOCC3)CC[C@]3(C)[C@H](CC[C@@H]4[C@@]5(C)CC[C@H](O[C@@H]6OC[C@H](O)[C@H](O)[C@H]6O[C@@H]6O[C@@H](C)[C@H](O)[C@@H](O)[C@H]6O)[C@@](C)(CO)[C@@H]5CC[C@]43C)[C@@H]12

IC50 [6]: ≥ 80 µM
SMILES: C=C(C)[C@@H]1CC[C@]2(C(=O)NCCCNC(=O)OC(C)(C)C)CC[C@]3(C)[C@H](CC[C@@H]4[C@@]5(C)CC[C@H](O[C@@H]6OC[C@H](O)[C@H](O)[C@H]6O[C@@H]6O[C@@H](C)[C@H](O)[C@@H](O)[C@H]6O)[C@@](C)(CO)[C@@H]5CC[C@]43C)[C@@H]12
Activity [13]: Active

IC50 [6]: ≥ 80 µM | IC50 [12]: > 1 µM
SMILES: C=C(C)[C@@H]1CC[C@]2(C(=O)NCCNC(=O)OC(C)(C)C)CC[C@]3(C)[C@H](CC[C@@H]4[C@@]5(C)CC[C@H](O[C@@H]6OC[C@H](O)[C@H](O)[C@H]6O[C@@H]6O[C@@H](C)[C@H](O)[C@@H](O)[C@H]6O)[C@@](C)(CO)[C@@H]5CC[C@]43C)[C@@H]12

IC50 [6]: 55.7 µM | IC50 [12]: > 1 µM
SMILES: C=C(C)[C@@H]1CC[C@]2(C(=O)NC(C)C)CC[C@]3(C)[C@H](CC[C@@H]4[C@@]5(C)CC[C@H](O[C@@H]6OC[C@H](O)[C@H](O)[C@H]6O[C@@H]6O[C@@H](C)[C@H](O)[C@@H](O)[C@H]6O)[C@@](C)(CO)[C@@H]5CC[C@]43C)[C@@H]12

IC50 [6]: 52.8 µM | IC50 [12]: > 1 µM
SMILES: C=C(C)[C@@H]1CC[C@]2(C(=O)NCCO)CC[C@]3(C)[C@H](CC[C@@H]4[C@@]5(C)CC[C@H](O[C@@H]6OC[C@H](O)[C@H](O)[C@H]6O[C@@H]6O[C@@H](C)[C@H](O)[C@@H](O)[C@H]6O)[C@@](C)(CO)[C@@H]5CC[C@]43C)[C@@H]12

IC50 [6]: ≥ 80 µM | IC50 [12]: > 1 µM
SMILES: C=C(C)[C@@H]1CC[C@]2(C(=O)OCOC(C)=O)CC[C@]3(C)[C@H](CC[C@@H]4[C@@]5(C)CC[C@H](O[C@@H]6OC[C@H](O)[C@H](O)[C@H]6O[C@@H]6O[C@@H](C)[C@H](O)[C@@H](O)[C@H]6O)[C@@](C)(CO)[C@@H]5CC[C@]43C)[C@@H]12
